Source: ChEMBL document CHEMBL5393441, “Bicyclic heterocyclic compounds as inhibitors ofbcdin3d activity” (2022)
Activity calls are given as the source filed them. The rule behind the calls is not given here.

Columns and labels:
[1] = biological target: T1, RNA 5'-monophosphate methyltransferase (Homo sapiens, UniProt Q7Z5W3); assay: Binding affinity towards N-terminal ePL-tagged BCDIN3D (unknown origin) transfected in human A549 cells preincubated for 1 hr and measured by InCellPulse thermal stability assay; type: cell-based
T1 sequence (Q7Z5W3 whole entry): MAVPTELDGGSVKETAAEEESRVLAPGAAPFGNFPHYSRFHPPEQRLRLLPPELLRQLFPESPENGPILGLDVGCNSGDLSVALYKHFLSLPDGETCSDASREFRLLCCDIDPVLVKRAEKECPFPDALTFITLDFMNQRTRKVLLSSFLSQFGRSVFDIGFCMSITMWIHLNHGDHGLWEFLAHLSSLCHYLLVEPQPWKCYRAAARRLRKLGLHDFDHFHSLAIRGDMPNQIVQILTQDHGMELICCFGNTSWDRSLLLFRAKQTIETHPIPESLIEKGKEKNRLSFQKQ

[2] = biological target: T1, RNA 5'-monophosphate methyltransferase; assay: Inhibition of BCDIN3D (unknown origin) using mini-helix and SAM as substrate incubated for 1 hr by RapidFire High Throughput mass spectrometry
[3] = biological target: T2, RNA 5'-monophosphate methyltransferase (Homo sapiens) (UniProt Q7Z5W3); assay: Inhibition of BCDIN3D in activated CD4+ T cells isolated from human PBMC stimulated with anti-CD3/CD28 and restimulated with PMA and ionomycin for 4 hrs in the presence of brefeldin A assessed as reduction in IFN-gamma production at 100 to 500 nM; type: cell-based; conditions: T cell, dose 100-500 nM
T2 sequence (whole entry): T1 sequence (Q7Z5W3 whole entry)

Mus musculus = assay: Antiinflammatory activity in sheep red blood cells (SRBCs)-induced delayed hypersensitivity male CD-1/ICR mouse model at 30 mg/kg administered once daily for 7 days; type: functional, organism-based; conditions: time 7.0 day

Row | Compound | IC50 [1] | IC50 [2] | inhibition [3] | Activity (Mus musculus)
1 | Cc1ccc(CNc2nc(NCCN)nc3c2cnn3C)cc1Cl | 6.46 µM | 1650 nM |  | 
2 | Cn1ncc2c(Nc3cc(F)cc(F)c3)nc(NCC3(N)CC3)nc21 | 4.65 µM | 1000 nM |  | 
3 | CNc1nc(NC[C@](C)(N)c2ccccc2)nc2c1cnn2C | 10.8 µM | 7650 nM |  | 
4 | Cn1ncc2c(Nc3ccc(C(F)(F)F)nc3)nc(NC[C@@](C)(N)c3ccccc3)nc21 | 0.133 µM | 38.1 nM |  | 
5 | Cn1ncc2c(NCC3CC(C(F)(F)F)C3)nc(NC[C@H](N)c3ccccc3)nc21 (stereo partly drawn) | 0.034 µM | 17 nM |  | 
6 | Cn1ncc2c(NC(C)(C)C)nc(NC[C@H](N)c3ccccc3)nc21 |  |  | Active | Active
7 | Cn1ncc2c(NC34CC(C3)C4)nc(NCC(N)c3ccccc3)nc21 (stereo not drawn) | 0.889 µM | 189 nM |  | 
8 | COc1cc(Nc2nc(NCC3(N)CC3)nc3c2cnn3C)cc(OC)c1 | 2.99 µM | 1260 nM |  | 
9 | Cn1ncc2c(NC3CCC(F)(F)C3)nc(NC[C@H](N)c3ccccc3)nc21 (stereo partly drawn) | 0.58 µM | 450 nM |  | 
10 | Cn1ncc2c(Nc3ccc(Cl)cc3)nc(NC[C@H](N)c3ccccc3)nc21 |  |  | Active | Active
11 | Cn1ncc2c(Nc3ccc(C(F)(F)F)cc3)nc(NCC3(N)COC3)nc21 | 6.67 µM |  |  | 
12 | Cc1cc(Nc2nc(NCC(N)CF)nc3c2cnn3C)ccc1Cl (stereo not drawn) | 5.5 µM | 6170 nM |  | 
